Results as given in patent US7550613B2, “Compounds” (Pronova Biopharma Norge AS, priority 2005, dated 2009).

What was measured:
[1] = Analysis of intracellular free fatty acids in liver tissue (RP-HPLC MS/MS); type: in vivo, adipose prone mice of the C57BL/6J strain; settings: FIG. 4; 1.5% of total fat content
Protocol: In the first block of experiments (see FIG. 2) liver tissue from animals fed PRB-1,2,5, and 7 was analysed with respect to free unesterified fatty acids. The animals were recruited from the fifth block of experiments (pharmacodynamic effects of DHA derivatives in an animal model of metabolic syndrome). The animals had been given DHA ([…] of fat content of the diet) or the DHA-derivatives (1.5% of the fat content in their diet) for 8 weeks and were supposed to be in a steady-state situation with stable levels of DHA and the DHA-derivatives intracellularily. Liver tissue was chosen due to the fact that the metabolisation rate is very high in liver.
The liver samples were homogenized in cold PBS buffer, and extracted immediately with chloroform:methanol (2:1) containing 0.2 mM butylated hydroxytoluene (BHT) using cis-10-heptadecenoic acid as internal standard. […] Total protein content was measured using Bio-Rad method after homogenization.
Agilent 1100 system was used for reverse phase column (Supelco Ascentis C18 column, 25 cm×4.6 mm, i.d. 5 μm) separation of DHA and its PRB derivatives within 22 min. […] The column elute was identified and quantified in the negative electrospray ionisation applying multiple reaction monitoring mode by triple tandem quadrapole mass/mass (ABI Qtrap-4000). […] The quadratic regression standard curve was used for quantification after internal standard calibration. […]

[2] = Effect of DHA derivatives on established metabolic syndrome and insulin resistance (Example 5b); type: in vivo, C57BL/6 mice
Protocol: In another experiment, PRB-2, PRB-5, and PRB-7 were tested in the same breed of animals. In this experiment, animals were initially fed high fat diet (the same as in the previous experiment 5a) for 8 weeks developing insulin resistance and the metabolic syndrome, and then given the PRBs. […] After a period of another two weeks the animals were given 1.5% of PRB-2, 5% and 1.5% of PRB-5, and 1.5% and 0.5% of PRB-7.

**Q.** Which “intracellular concentration of DHA in liver tissue from animals given the PRB” value [1] does the source give for CC/C=C\C/C=C\C/C=C\C/C=C\C/C=C\C/C=C\CC(SCC)C(=O)OCC (stereo not drawn) [PRB-7, α-tioethyl docosahexaenoic acid ethyl ester] here?
**A.** significantly higher level

**Q.** And the plasma insulin ([2]; FIG. 15)?
**A.** some effects on the insulin concentration

**Q.** What about the “AUC blood glucose compared to the baseline values” ([2]; FIG. 16, 1.5% of PRB-2) of the same compound?
**A.** some effect but not to the same extent
